“And” between values parts separate entries of the source, which are not always exact repeats. Identical values can stand only once.
What follows are compounds tested against T1, AaegOR6 (Aedes aegypti, UniProt A0A1S4G757) (assay: Two-electrode voltage clamp of Xenopus laevis oocytes expressing AaegOR6/Orco (blends, unitary compounds, concentration-response)). Conditions: Indoles 2 unitary compounds; oocyte 1.
T1 sequence (A0A1S4G757 1-398): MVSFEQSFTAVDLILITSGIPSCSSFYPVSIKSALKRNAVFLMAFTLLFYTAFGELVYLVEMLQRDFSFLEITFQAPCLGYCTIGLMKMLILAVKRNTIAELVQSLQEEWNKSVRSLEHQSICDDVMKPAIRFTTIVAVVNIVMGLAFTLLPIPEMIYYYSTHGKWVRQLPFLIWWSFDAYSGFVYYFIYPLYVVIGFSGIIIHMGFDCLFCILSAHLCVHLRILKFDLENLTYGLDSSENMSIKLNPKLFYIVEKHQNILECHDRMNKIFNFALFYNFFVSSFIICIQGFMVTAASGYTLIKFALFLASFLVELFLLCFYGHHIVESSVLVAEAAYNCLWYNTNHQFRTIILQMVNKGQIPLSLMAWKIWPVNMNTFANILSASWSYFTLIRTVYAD
T1 sequence (Q178U6 1-478 partner): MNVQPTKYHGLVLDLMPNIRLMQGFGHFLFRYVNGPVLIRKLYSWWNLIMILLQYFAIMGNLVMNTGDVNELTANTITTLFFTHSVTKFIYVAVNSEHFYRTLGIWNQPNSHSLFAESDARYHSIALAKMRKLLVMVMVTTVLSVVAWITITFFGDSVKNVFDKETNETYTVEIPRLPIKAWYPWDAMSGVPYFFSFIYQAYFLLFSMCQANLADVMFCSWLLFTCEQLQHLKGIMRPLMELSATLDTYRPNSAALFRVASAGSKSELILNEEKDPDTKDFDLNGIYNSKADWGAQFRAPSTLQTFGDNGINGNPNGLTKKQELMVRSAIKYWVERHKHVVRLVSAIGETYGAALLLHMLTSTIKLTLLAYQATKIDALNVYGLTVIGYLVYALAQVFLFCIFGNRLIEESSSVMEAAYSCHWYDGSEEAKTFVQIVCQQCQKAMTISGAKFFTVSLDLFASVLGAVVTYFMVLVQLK
Type: cell-based
Excerpt: (§1) The coding regions of ten AaegOR genes of interest (S3 File) and AaegOrco were synthesized by Twist Bioscience (San Francisco, CA, USA) and cloned into the pENTR plasmid. The Gateway LR directional cloning system (Invitrogen Corp., Carlsbad, CA, USA) was utilized to subclone AaegOR coding regions into the pSP64t-RFA oocyte expression plasmid. Plasmids were purified using the GeneJet Plasmid Miniprep Kit (ThermoFisher Scientific, Waltham, MA, USA). Purified plasmids were sequenced in both directions to confirm coding regions.
(§2) Chemical compounds (S6 File) used in the deorphanization of AaegORs were purchased from Acros Organics (Morris, NJ, USA), Alfa Aesar (Ward Hill, MA, USA), and ThermoFisher Scientific (Waltham, MA, USA) at the highest purity available. Compounds were stored as 1M stocks in 100% DMSO. Serial dilutions of each compound were prepared in 10% DMSO and blended by chemical class.
(§3) pSP64t-RFA: AaegOR clones were linearized using Xbal, and cRNAs were synthesized using the mMESSAGE mMACHINE ® SP6 kit (Life Technologies, Carlsbad, CA, USA). Xenopus laevis stage V-VII oocytes purchased from Xenopus1 (Dexter, MI, USA) were stored at 18°C in Incubation medium (ND96 96 with 5% dialyzed horse serum, 50μg/mL gentamycin, 100μg/mL streptomycin, 100μg/mL penicillin, and 550μg/mL sodium pyruvate). 30nL of cRNA was injected into multiple oocytes using a microinjection syringe pump (World Precision Instruments, Sarasota, FL, USA) maintained at 18°C for 48–72 hrs. Odorant blends were perfused across individual oocytes for 10–15 seconds, held at a resting membrane potential of -80 mV using an OC-725C oocyte clamp (Warner Instruments, LLC, Hamden, CT, USA). Induced currents were measured indirectly using the two-electrode voltage clamp technique (TEVC). Following each stimulus, currents were allowed to return to baseline before further stimulation. Data was captured using the Digidata 1550 B digitizer and PClamp10 software (Molecular Devices, San Jose, CA, USA). Concentration-response curves were generated by perfusing unitary odorants over oocytes at increasing concentrations from [10^-3M] to [10^-9M]. Data were analyzed using GraphPad Prism 8 (GraphPad Software Inc., La Jolla, CA, USA). At least two biological replicates were conducted at each concentration and for each compound. Data for at least seven oocytes responding to each compound was analyzed (S7 File).

| Compound | Raw data (Responses in nA) Oocyte 1 |
| --- | --- |
| O=Cc1ccnc2ccccc12 [4-quinolinecarboxaldehyde, 4-Quinolinecarboxaldehyde] | 0.0 nA |
| Nc1cccc2cnccc12 [5-Aminoisoquinoline] | 0.0 nA |

Same assay, conditions: Indoles 2 unitary compounds; oocyte 2

| Compound | Raw data (Responses in nA) Oocyte 2 |
| --- | --- |
| O=Cc1ccnc2ccccc12 [4-quinolinecarboxaldehyde, 4-Quinolinecarboxaldehyde] | 0.0 nA |
| Nc1cccc2cnccc12 [5-Aminoisoquinoline] | 0.0 nA |

Same assay, conditions: Indoles 2 unitary compounds; oocyte 3

| Compound | Raw data (Responses in nA) Oocyte 3 |
| --- | --- |
| O=Cc1ccnc2ccccc12 [4-quinolinecarboxaldehyde, 4-Quinolinecarboxaldehyde] | 0.0 nA |
| Nc1cccc2cnccc12 [5-Aminoisoquinoline] | 0.0 nA |

Same assay, conditions: Indoles 2 unitary compounds; oocyte 4

| Compound | Raw data (Responses in nA) Oocyte 4 |
| --- | --- |
| O=Cc1ccnc2ccccc12 [4-quinolinecarboxaldehyde, 4-Quinolinecarboxaldehyde] | 0.0 nA |
| Nc1cccc2cnccc12 [5-Aminoisoquinoline] | 0.0 nA |

Same assay, conditions: Indoles 2 unitary compounds; oocyte 5

| Compound | Raw data (Responses in nA) Oocyte 5 |
| --- | --- |
| O=Cc1ccnc2ccccc12 [4-quinolinecarboxaldehyde, 4-Quinolinecarboxaldehyde] | 0.0 nA |
| Nc1cccc2cnccc12 [5-Aminoisoquinoline] | 0.0 nA |

Same assay, conditions: Indoles 2 unitary compounds; oocyte 6

| Compound | Raw data (Responses in nA) Oocyte 6 |
| --- | --- |
| O=Cc1ccnc2ccccc12 [4-quinolinecarboxaldehyde, 4-Quinolinecarboxaldehyde] | 0.0 nA |
| Nc1cccc2cnccc12 [5-Aminoisoquinoline] | 0.0 nA |

Same assay, conditions: Indoles 2 unitary compounds; oocyte 7

| Compound | Raw data (Responses in nA) Oocyte 7 |
| --- | --- |
| O=Cc1ccnc2ccccc12 [4-quinolinecarboxaldehyde, 4-Quinolinecarboxaldehyde] | 0.0 nA |
| Nc1cccc2cnccc12 [5-Aminoisoquinoline] | 0.0 nA |

Same assay, conditions: Indoles 2 unitary compounds; oocyte 8

| Compound | Raw data (Responses in nA) Oocyte 8 |
| --- | --- |
| O=Cc1ccnc2ccccc12 [4-quinolinecarboxaldehyde, 4-Quinolinecarboxaldehyde] | 0.0 nA |
| Nc1cccc2cnccc12 [5-Aminoisoquinoline] | 0.0 nA |

Each compound was assayed against T2, AaegOR71 (Aedes aegypti, UniProt A0A3S7SHD4) (assay: Two-electrode voltage clamp of Xenopus laevis oocytes expressing AaegOR71/Orco (blends, unitary compounds, concentration-response)). Conditions: AaegOR71/Orco expressing oocytes, TEVC, concentration-response of normalized current.
T2 sequence (A0A3S7SHD4 1-415): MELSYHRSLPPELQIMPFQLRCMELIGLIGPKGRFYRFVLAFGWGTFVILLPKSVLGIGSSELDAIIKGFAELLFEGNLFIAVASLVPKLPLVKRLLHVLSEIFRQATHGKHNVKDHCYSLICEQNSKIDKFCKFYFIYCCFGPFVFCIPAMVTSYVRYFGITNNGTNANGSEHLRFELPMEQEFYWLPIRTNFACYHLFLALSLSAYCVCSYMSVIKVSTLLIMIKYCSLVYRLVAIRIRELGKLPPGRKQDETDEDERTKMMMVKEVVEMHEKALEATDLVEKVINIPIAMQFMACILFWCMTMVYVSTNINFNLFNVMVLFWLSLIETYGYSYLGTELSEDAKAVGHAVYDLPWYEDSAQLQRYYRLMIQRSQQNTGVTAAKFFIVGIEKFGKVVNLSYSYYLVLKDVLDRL
T2 sequence (Q178U6 1-478 partner): T1 sequence (Q178U6 1-478 partner)
Type: cell-based
Excerpt: as §1, §2, §3

| Compound | EC50 |
| --- | --- |
| O=Cc1ccnc2ccccc12 [4-quinolinecarboxaldehyde, 4-Quinolinecarboxaldehyde] | ~960 nM and 960 nM |

Same assay, conditions: Indoles 2 unitary compounds; oocyte 1

| Compound | Raw Data (Response in nA) Oocyte 1 |
| --- | --- |
| O=Cc1ccnc2ccccc12 [4-quinolinecarboxaldehyde, 4-Quinolinecarboxaldehyde] | 1070 nA |
| Nc1cccc2cnccc12 [5-Aminoisoquinoline] | 130 nA |

Same assay, conditions: Indoles 2 unitary compounds; oocyte 2

| Compound | Raw Data (Response in nA) Oocyte 2 |
| --- | --- |
| O=Cc1ccnc2ccccc12 [4-quinolinecarboxaldehyde, 4-Quinolinecarboxaldehyde] | 2930 nA |
| Nc1cccc2cnccc12 [5-Aminoisoquinoline] | 200 nA |

Same assay, conditions: Indoles 2 unitary compounds; oocyte 3

| Compound | Raw Data (Response in nA) Oocyte 3 |
| --- | --- |
| O=Cc1ccnc2ccccc12 [4-quinolinecarboxaldehyde, 4-Quinolinecarboxaldehyde] | 590 nA |
| Nc1cccc2cnccc12 [5-Aminoisoquinoline] | 40 nA |

Same assay, conditions: Indoles 2 unitary compounds; oocyte 4

| Compound | Raw Data (Response in nA) Oocyte 4 |
| --- | --- |
| O=Cc1ccnc2ccccc12 [4-quinolinecarboxaldehyde, 4-Quinolinecarboxaldehyde] | 1710 nA |
| Nc1cccc2cnccc12 [5-Aminoisoquinoline] | 40 nA |

Same assay, conditions: Indoles 2 unitary compounds; oocyte 5

| Compound | Raw Data (Response in nA) Oocyte 5 |
| --- | --- |
| O=Cc1ccnc2ccccc12 [4-quinolinecarboxaldehyde, 4-Quinolinecarboxaldehyde] | 390 nA |
| Nc1cccc2cnccc12 [5-Aminoisoquinoline] | 0 nA |

Same assay, conditions: Indoles 2 unitary compounds; oocyte 6

| Compound | Raw Data (Response in nA) Oocyte 6 |
| --- | --- |
| O=Cc1ccnc2ccccc12 [4-quinolinecarboxaldehyde, 4-Quinolinecarboxaldehyde] | 930 nA |
| Nc1cccc2cnccc12 [5-Aminoisoquinoline] | 10 nA |

Same assay, conditions: Indoles 2 unitary compounds; oocyte 7

| Compound | Raw Data (Response in nA) Oocyte 7 |
| --- | --- |
| O=Cc1ccnc2ccccc12 [4-quinolinecarboxaldehyde, 4-Quinolinecarboxaldehyde] | 330 nA |
| Nc1cccc2cnccc12 [5-Aminoisoquinoline] | 0 nA |

Same assay, conditions: Indoles 2 unitary compounds; oocyte 8

| Compound | Raw Data (Response in nA) Oocyte 8 |
| --- | --- |
| O=Cc1ccnc2ccccc12 [4-quinolinecarboxaldehyde, 4-Quinolinecarboxaldehyde] | 410 nA |
| Nc1cccc2cnccc12 [5-Aminoisoquinoline] | 10 nA |

Same assay, conditions: concentration-response, first series; 1e-9 M; Oocytes 1-8 individually

| Compound | Raw Data (Response in nA) |
| --- | --- |
| O=Cc1ccnc2ccccc12 [4-quinolinecarboxaldehyde, 4-Quinolinecarboxaldehyde] | 10 nA (2×) and 0 nA (5×) and 30 nA |

Same assay, conditions: concentration-response, first series; 5e-9 M; Oocytes 1-8 individually

| Compound | Raw Data (Response in nA) |
| --- | --- |
| O=Cc1ccnc2ccccc12 [4-quinolinecarboxaldehyde, 4-Quinolinecarboxaldehyde] | 30 nA (2×) and 10 nA (2×) and 20 nA and 0 nA and 5 nA (2×) |

Same assay, conditions: concentration-response, first series; 1e-8 M; Oocytes 1-8 individually

| Compound | Raw Data (Response in nA) |
| --- | --- |
| O=Cc1ccnc2ccccc12 [4-quinolinecarboxaldehyde, 4-Quinolinecarboxaldehyde] | 60 nA (2×) and 15 nA and 30 nA and 25 nA and 5 nA and 10 nA (2×) |

Same assay, conditions: concentration-response, first series; 5e-8 M; Oocytes 1-8 individually

| Compound | Raw Data (Response in nA) |
| --- | --- |
| O=Cc1ccnc2ccccc12 [4-quinolinecarboxaldehyde, 4-Quinolinecarboxaldehyde] | 140 nA and 35 nA and 70 nA and 25 nA (2×) and 110 nA and 10 nA and 30 nA |

Same assay, conditions: concentration-response, first series; 1e-7 M; Oocytes 1-8 individually

| Compound | Raw Data (Response in nA) |
| --- | --- |
| O=Cc1ccnc2ccccc12 [4-quinolinecarboxaldehyde, 4-Quinolinecarboxaldehyde] | 200 nA and 50 nA (3×) and 120 nA and 30 nA (2×) and 190 nA |

Same assay, conditions: concentration-response, first series; 5e-7 M; Oocytes 1-8 individually

| Compound | Raw Data (Response in nA) |
| --- | --- |
| O=Cc1ccnc2ccccc12 [4-quinolinecarboxaldehyde, 4-Quinolinecarboxaldehyde] | 500 nA and 150 nA and 320 nA and 90 nA (2×) and 380 nA and 100 nA and 120 nA |

Same assay, conditions: concentration-response, first series; 1e-6 M; Oocytes 1-8 individually

| Compound | Raw Data (Response in nA) |
| --- | --- |
| O=Cc1ccnc2ccccc12 [4-quinolinecarboxaldehyde, 4-Quinolinecarboxaldehyde] | 620 nA and 180 nA and 410 nA and 125 nA and 470 nA and 140 nA and 150 nA (2×) |

Same assay, conditions: concentration-response, second series (unlabelled); 5e-9 M; Oocytes 1-8 individually

| Compound | Raw Data (Response in nA) |
| --- | --- |
| O=Cc1ccnc2ccccc12 [4-quinolinecarboxaldehyde, 4-Quinolinecarboxaldehyde] | 8.84 nA and 16 nA and 25 nA and 15 nA (2×) and 5 nA (2×) and 0 nA |

Same assay, conditions: concentration-response, second series (unlabelled); 1e-8 M; Oocytes 1-8 individually

| Compound | Raw Data (Response in nA) |
| --- | --- |
| O=Cc1ccnc2ccccc12 [4-quinolinecarboxaldehyde, 4-Quinolinecarboxaldehyde] | 20 nA (3×) and 40 nA (2×) and 60 nA and 150 nA and 30 nA |

Same assay, conditions: concentration-response, second series (unlabelled); 5e-8 M; Oocytes 1-8 individually

| Compound | Raw Data (Response in nA) |
| --- | --- |
| O=Cc1ccnc2ccccc12 [4-quinolinecarboxaldehyde, 4-Quinolinecarboxaldehyde] | 40 nA (4×) and 80 nA and 100 nA and 160 nA and 20 nA |

Same assay, conditions: concentration-response, second series (unlabelled); 1e-7 M; Oocytes 1-8 individually

| Compound | Raw Data (Response in nA) |
| --- | --- |
| O=Cc1ccnc2ccccc12 [4-quinolinecarboxaldehyde, 4-Quinolinecarboxaldehyde] | 60 nA (3×) and 120 nA (2×) and 190 nA and 40 nA and 50 nA |

Same assay, conditions: concentration-response, second series (unlabelled); 5e-7 M; Oocytes 1-8 individually

| Compound | Raw Data (Response in nA) |
| --- | --- |
| O=Cc1ccnc2ccccc12 [4-quinolinecarboxaldehyde, 4-Quinolinecarboxaldehyde] | 140 nA and 240 nA and 260 nA and 110 nA and 80 nA (2×) and 300 nA and 50 nA |

Same assay, conditions: concentration-response, second series (unlabelled); 1e-6 M; Oocytes 1-8 individually

| Compound | Raw Data (Response in nA) |
| --- | --- |
| O=Cc1ccnc2ccccc12 [4-quinolinecarboxaldehyde, 4-Quinolinecarboxaldehyde] | 180 nA and 290 nA (2×) and 140 nA |

Source: paper PMC11073699, “Odorant receptors for floral- and plant-derived volatiles in the yellow fever mosquito, Aedes aegypti (Diptera: Culicidae)” (PLOS ONE, 2024)
